Assay results published in patent US9636339B2, “Phenyl-dihydropyridine derivatives as aldosterone synthase inhibitors” (Hoffmann-La Roche Inc., priority 2013, dated 2017).

Assays:
human CYP11B2 = human CYP11B2 (Homo sapiens (Human), UniProt P19099); assay: G-402 cellular enzyme assay, human CYP11B2 (aldosterone release); assay type: cell-based; settings: G-402 cells, 1 μM Deoxycorticosterone
Excerpt: (§1) Herein we identified the use of the G-402 cell line as a host cell to ectopically express (transiently or stably) enzymes of the CYP11 family. Specifically we developed stable G-402 cells expressing ectopically human CYP11B1, human CYP11B2, human CYP11A1, cynmolgus CYP11B1 or cynomolgus CYP11B2 enzyme activity. Importantly the identified cell line G-402 expresses co-factors (adrenodoxin and adrenodoxin reductase) important for the activity of the CYP11 family and no relevant enzyme activity of the CYP11 family (in comparison to H295R cells) was detected in these cells. Therefore the G-402 cell line is uniquely suited as a host cell for the ectopic expression of enzymes from the CYP11 family. G-402 cells can be obtained from ATCC (CRL-1440) and were originally derived from a renal leiomyoblastoma.
(§2) The expression plasmids contains the ORF for either human/cyno CYP11B1 or CYP11B2 under the control of a suitable promoter (CMV-promoter) and a suitable resistance marker (neomycin). Using standard techniques the expression plasmid is transfected into G-402 cells and these cells are then selected for expressing the given resistance markers. Individual cell-clones are then selected and assessed for displaying the desired enzymatic activity using 11-Deoxycorticosterone (Cyp11B2) or 11-Deoxycortisol (Cyp11B1) as a substrate.
(§3) G-402 cells expressing CYP11 constructs were established as described above and maintained in McCoy's 5a Medium Modified, ATCC Catalog No. 30-2007 containing 10% FCS and 400 μg/ml G418 (Geneticin) at 37° C. under an atmosphere of 5% CO2/95% air. Cellular enzyme assays were performed in DMEM/F12 medium containing 2.5% charcoal treated FCS and appropriate concentration of substrate (0.3-10 uM 11-Deoxycorticosterone, 11-Deoxycortisol or Corticosterone). For assaying enzymatic activity, cells were plated onto 96 well plates and incubated for 16 h. An aliquot of the supernatant is then transferred and analyzed for the concentration of the expected product (Aldosterone for CYP11B2; Cortisol for CYP11B1). The concentrations of these steroids can be determined using HTRF assays from CisBio analyzing either Aldosterone or Cortisol.
(§4) Inhibition of the release of produced steroids can be used as a measure of the respective enzyme inhibition by test compounds added during the cellular enzyme assay. The dose dependent inhibition of enzymatic activity by a compound is calculated by means of plotting added inhibitor concentrations (x-axes) vs. measured steroid/product level (y-axes). The inhibition is then calculated by fitting the following 4-parameter sigmoidal function (Morgan-Mercer-Flodin (MMF) model) to the raw data points using the least squares method:
(§5) [formula] wherein, A is the maximum y value, B is the EC50 factor determined using XLFit, C is the minimum y value and D is the slope value.
(§6) EC50 values for compounds claimed herein were tested with the G402-based assay system described. Cyp11B2 enzyme activity was tested in presence of 1 μM Deoxycorticosterone and variable amounts of inhibitors; Cyp11B1 enzyme activity was tested in presence of 1 μM Deoxycortisol and variable amounts of inhibitors.

human CYP11B1 = human CYP11B1 (Homo sapiens (Human), UniProt P15538); assay: G-402 cellular enzyme assay, human CYP11B1 (cortisol release); assay type: cell-based; settings: G-402 cells, 1 μM Deoxycortisol
Excerpt: as §1, §2, §3, §4, §5, §6

Chain of human CYP11B1 (P15538 25-503): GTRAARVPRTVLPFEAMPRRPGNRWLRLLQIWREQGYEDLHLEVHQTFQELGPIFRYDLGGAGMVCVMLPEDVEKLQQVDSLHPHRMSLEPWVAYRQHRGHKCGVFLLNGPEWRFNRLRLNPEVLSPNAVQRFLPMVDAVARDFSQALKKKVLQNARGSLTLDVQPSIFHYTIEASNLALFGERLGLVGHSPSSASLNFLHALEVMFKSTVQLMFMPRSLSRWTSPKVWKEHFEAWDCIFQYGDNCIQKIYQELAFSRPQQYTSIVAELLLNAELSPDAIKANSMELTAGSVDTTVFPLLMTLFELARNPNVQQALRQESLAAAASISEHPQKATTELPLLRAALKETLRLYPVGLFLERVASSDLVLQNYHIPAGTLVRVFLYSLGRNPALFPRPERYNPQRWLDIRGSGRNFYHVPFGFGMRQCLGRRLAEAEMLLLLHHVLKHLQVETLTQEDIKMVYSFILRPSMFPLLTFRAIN
Chain of human CYP11B2 (P19099 25-503): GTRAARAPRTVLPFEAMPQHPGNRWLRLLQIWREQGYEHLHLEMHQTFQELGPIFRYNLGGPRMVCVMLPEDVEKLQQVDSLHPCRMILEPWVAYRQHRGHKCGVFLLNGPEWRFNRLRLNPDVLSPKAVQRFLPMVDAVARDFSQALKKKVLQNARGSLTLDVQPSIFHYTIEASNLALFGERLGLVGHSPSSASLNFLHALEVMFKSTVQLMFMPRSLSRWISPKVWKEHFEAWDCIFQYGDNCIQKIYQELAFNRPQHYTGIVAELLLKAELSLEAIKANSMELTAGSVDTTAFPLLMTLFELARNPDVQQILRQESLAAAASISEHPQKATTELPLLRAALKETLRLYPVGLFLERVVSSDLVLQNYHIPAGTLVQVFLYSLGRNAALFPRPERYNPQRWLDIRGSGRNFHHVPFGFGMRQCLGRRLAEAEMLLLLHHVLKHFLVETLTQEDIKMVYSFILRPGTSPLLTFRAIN

Compound | EC50 (human CYP11B2) [nM] | EC50 (human CYP11B1) [nM]
O=C(CC1CCc2c(-c3ccc(C(F)(F)F)c(F)c3)cncc21)NCC1CC1 (racemic) [Example 6, (rac)-N-(Cyclopropylmethyl)-2-[4-[3-fluoro-4-(trifluoromethyl)phenyl]-6,7-dihydro-5H-cyclopenta[c]pyridin-7-yl]acetamide] | 24 | 331
CN(C)C(=O)CC1CCCc2c(-c3ccc(C(F)(F)F)cc3F)cncc21 (racemic) [Example 26, (rac)-2-[4-[2-Fluoro-4-(trifluoromethyl)phenyl]-5,6,7,8-tetrahydroisoquinolin-8-yl]-N,N-dimethyl-acetamide] | 32 | 3080
O=C(CC1CCCc2c(-c3ccc(C(F)(F)F)cc3F)cncc21)NC1CC1 (racemic) [Example 30, (rac)-N-Cyclopropyl-2-[4-[2-fluoro-4-(trifluoromethyl)phenyl]-5,6,7,8-tetrahydroisoquinolin-8-yl]acetamide] | 37 | 448
O=C(CC1CCCc2c(-c3ccc(C(F)(F)F)cc3F)cncc21)NCC1CC1 (racemic) [Example 31, (rac)-N-(Cyclopropylmethyl)-2-[4-[2-fluoro-4-(trifluoromethyl)phenyl]-5,6,7,8-tetrahydroisoquinolin-8-yl]acetamide] | 71 | 1780
O=C(CC1CCc2c(-c3ccc(C(F)(F)F)c(F)c3)cncc21)Nc1cc[nH]n1 (racemic) [Example 11, (rac)-2-[4-[3-Fluoro-4-(trifluoromethyl)phenyl]-6,7-dihydro-5H-cyclopenta[c]pyridin-7-yl]-N-(1H-pyrazol-3-yl)acetamide] | 8 | 30
CNC(=O)CC1CCc2c(-c3ccc(C(F)(F)F)c(F)c3)cncc21 (racemic) [Example 2, (rac)-2-[4-[3-Fluoro-4-(trifluoromethyl)phenyl]-6,7-dihydro-5H-cyclopenta[c]pyridin-7-yl]-N-methyl-acetamide] | 17 | 199
COCCNC(=O)CC1CCCc2c(-c3ccc(C(F)(F)F)cc3F)cncc21 (racemic) [Example 32, (rac)-2-[4-[2-Fluoro-4-(trifluoromethyl)phenyl]-5,6,7,8-tetrahydroisoquinolin-8-yl]-N-(2-methoxyethyl)acetamide] | 222 | 5060
CCNC(=O)CC1CCCc2c(-c3ccc(C(F)(F)F)cc3F)cncc21 (racemic) [Example 29, (rac)-N-Ethyl-2-[4-[2-fluoro-4-(trifluoromethyl)phenyl]-5,6,7,8-tetrahydroisoquinolin-8-yl]acetamide] | 212 | 4080
CCOC(=O)CC1CCc2c(-c3ccc(C(F)(F)F)c(F)c3)cncc21 (racemic) [Example 1, (rac)-Ethyl 2-[4-[3-fluoro-4-(trifluoromethyl)phenyl]-6,7-dihydro-5H-cyclopenta[c]pyridin-7-yl]acetate] | 9 | 84
CCN(C(=O)CC1CCc2c(-c3ccc(C(F)(F)F)cc3F)cncc21)C1CC1 (racemic) [Example 17, (rac)-N-Cyclopropyl-N-ethyl-2-[4-[2-fluoro-4-(trifluoromethyl)phenyl]-6,7-dihydro-5H-cyclopenta[c]pyridin-7-yl]acetamide] | 29 | 745
O=C(CC1CCc2c(-c3ccc(C(F)(F)F)c(F)c3)cncc21)Nc1ccon1 (racemic) [Example 10, (rac)-2-[4-[3-Fluoro-4-(trifluoromethyl)phenyl]-6,7-dihydro-5H-cyclopenta[c]pyridin-7-yl]-N-isoxazol-3-yl-acetamide] | 17 | 180
O=C(CC1CCc2c(-c3ccc(C(F)(F)F)c(F)c3)cncc21)N1CCCCC1 (racemic) [Example 8, (rac)-2-[4-[3-Fluoro-4-(trifluoromethyl)phenyl]-6,7-dihydro-5H-cyclopenta[c]pyridin-7-yl]-1-(1-piperidyl)ethanone] | 2 | 10
O=C(CC1CCc2c(-c3ccc(C(F)(F)F)c(F)c3)cncc21)N1CCOCC1 (racemic) [Example 9, (rac)-2-[4-[3-Fluoro-4-(trifluoromethyl)phenyl]-6,7-dihydro-5H-cyclopenta[c]pyridin-7-yl]-1-morpholino-ethanone] | 20 | 152
O=C(CC1CCc2c(-c3ccc(C(F)(F)F)cc3F)cncc21)N1CCCC1 (racemic) [Example 21, (rac)-2-[4-[2-Fluoro-4-(trifluoromethyl)phenyl]-6,7-dihydro-5H-cyclopenta[c]pyridin-7-yl]-1-pyrrolidin-1-yl-ethanone] | 12 | 507
CCCNC(=O)CC1CCc2c(-c3ccc(C(F)(F)F)c(F)c3)cncc21 (racemic) [Example 4, (rac)-2-[4-[3-Fluoro-4-(trifluoromethyl)phenyl]-6,7-dihydro-5H-cyclopenta[c]pyridin-7-yl]-N-propyl-acetamide] | 21 | 112
CCOC(=O)CC1CCCc2c(-c3ccc(C(F)(F)F)cc3F)cncc21 (racemic) [Example 23, (rac)-Ethyl 2-[4-[2-fluoro-4-(trifluoromethyl)phenyl]-5,6,7,8-tetrahydroisoquinolin-8-yl]acetate] | 27 | 1890
CN(C(=O)CC1CCc2c(-c3ccc(C(F)(F)F)cc3F)cncc21)C1CC1 (racemic) [Example 16, (rac)-N-Cyclopropyl-2-[4-[2-fluoro-4-(trifluoromethyl)phenyl]-6,7-dihydro-5H-cyclopenta[c]pyridin-7-yl]-N-methyl-acetamide] | 6 | 211
OCCC1CCCc2c(-c3ccc(C(F)(F)F)cc3F)cncc21 (racemic) [Example 24, (rac)-2-[4-[2-Fluoro-4-(trifluoromethyl)phenyl]-5,6,7,8-tetrahydroisoquinolin-8-yl]ethanol] | 5 | 85
COCCNC(=O)CC1CCc2c(-c3ccc(C(F)(F)F)c(F)c3)cncc21 (racemic) [Example 7, (rac)-2-[4-[3-Fluoro-4-(trifluoromethyl)phenyl]-6,7-dihydro-5H-cyclopenta[c]pyridin-7-yl]-N-(2-methoxyethyl)acetamide] | 32 | 582
CNC(=O)CC1CCCc2c(-c3ccc(C(F)(F)F)cc3F)cncc21 (racemic) [Example 25, (rac)-2-[4-[2-Fluoro-4-(trifluoromethyl)phenyl]-5,6,7,8-tetrahydroisoquinolin-8-yl]-N-methyl-acetamide] | 11 | 1040
CN(C)C(=O)CC1CCCc2c(-c3ccc(C(F)(F)F)cc3F)cncc21 (single isomer, unassigned; (-)) [Example 28, (−)-(R or S)-2-[4-[2-fluoro-4-(trifluoromethyl)phenyl]-5,6,7,8-tetrahydroisoquinolin-8-yl]-N,N-dimethyl-acetamide] | 133 | 9110
CN(C)C(=O)CC1CCCc2c(-c3ccc(C(F)(F)F)cc3F)cncc21 (single isomer, unassigned; (+)) [Example 27, (+)-(R or S)-2-[4-[2-fluoro-4-(trifluoromethyl)phenyl]-5,6,7,8-tetrahydroisoquinolin-8-yl]-N,N-dimethyl-acetamide] | 36 | 1490
